Source: US5436229A, “Bisulfite adducts of arginine aldehydes” (Eli Lilly and Company, priority 1994, dated 1995)
Non-standard residues stand in square brackets, D forms with d. Residues, ends and D or L forms follow the SMILES beside them. dCha = N[C@H](CC1CCCCC1)C(=O)O; dPip = O=C(O)[C@H]1CCCCN1

Key:
[1] = Pharmacokinetic Model, oral gavage; assay type: in vivo; details: dogs, single 2 mg/kg oral gavage
Experimental: Male dogs (Beagles; 18 months-2 years; 12-13 kg, Marshall Farms, North Rose, N.Y. 14516) are fasted overnight and fed Purina certified Prescription Diet (Purina Mills, St. Louis, Mo.) 240 minutes after dosing. Water is available ad libitum. The room temperature is maintained between 66°-74° F.; 45-50 percent relative humidity; and lighted from 0600-1800 hours.
Test compound is formulated immediately prior to dosing by dissolving in sterile 0.9 percent saline to a 5 mg/ml preparation. Dogs are given a single 2 mg/kg dose of test compound by oral gavage. Blood samples (4.5 ml) are taken from the cephalic vein at 0.25, 0.5, 0.75, 1,2,3,4 and 6 hours after dosing. Samples are collected in citrated Vacutainer tubes and kept on ice prior to reduction to plasma by centrifugation. Plasma samples are derivatized with dinitrophenylhydrazine and analyzed by HPLC (Zorbax SB-C8 column) eluting with methanol/500 mM sodium acetate adjusted to pH7 with phosphoric acid (60:40, v/v). Plasma concentration of test compound is recorded and used to calculate the pharmacokinetic parameters: elimination rate constant, Ke; total clearance, Clt; volume of distribution, VD; time of maximum plasma test compound concentration, Tmax; maximum concentration of test compound of Tmax, Cmax; plasma half-life, t0.5; and area under the curve, A.U.C.; fraction of test compound absorbed, F.

template bleeding time = test: Template Bleeding Time assay; assay type: in vivo, dogs; details: 0.25, 0.50 and 1.0 mg/kg.hr, over a 240 minute time
Experimental: Whole blood cell counts, hemoglobin, and hematocrit values are determined on a 40-μl sample of citrated (3.8 percent) blood (1 part citrate:9 parts blood) with a hematology analyzer (Cell-Dyn 900, Sequoia-Turner. Mount View, Calif., U.S.A.). Gingival template bleeding times are determined with a Simplate II bleeding time device (Organon Teknika Durham, N.C., U.S.A.). The device is used to make 2 horizontal incisions in the gingiva of either the upper or lower left jaw of the dog. Each incision is 3 mm wide×2 mm deep. The incisions are made, and a stopwatch is used to determine how long bleeding occurs. A cotton swab is used to soak up the blood as it oozes from the incision. Template bleeding time is the time from incision to stoppage of bleeding. Bleeding times are taken just before administration of test compound (0 min), 60 min into infusion, at conclusion of administration of the test compound (120 min), and at the end of the experiment.
All data are analyzed by one-way analysis of variance (ANOVA) followed by Student-Neuman-Kuels post hoc t test to determine the level of significance. Repeated-measures ANOVA are used to determine significant differences between time points during the experiments. Values are determined to be statistically different at least at the level of p<0.05. All values are mean±SEM. […]

[2] = tested on: coronary artery thrombosis; test: Canine Model of Coronary Artery Thrombosis; assay type: in vivo, dogs
Experimental: Surgical preparation and instrumentation of the dogs are as described in Jackson, et al., Circulation, 82, 930-940 (1990). Mixed-breed hounds (aged 6-7 months, either sex, Hazelton-LRE, Kalamazoo, Mich., U.S.A.) are anesthetized with sodium pentobarbital (30 mg/kg intravenously, i.v.), intubated, and ventilated with room air. Tidal volume and respiratory rates are adjusted to maintain blood PO2, PCO2, and pH within normal limits. Subdermal needle electrodes are inserted for the recording of a lead II ECG.
The left jugular vein and common carotid artery are isolated through a left mediolateral neck incision. Arterial blood pressure (ABP) is measured continuously with a precalibrated Millar transducer (model (MPC-500, Millar Instruments, Houston, Tex., U.S.A.) inserted into the carotid artery. The jugular vein is cannulated for blood sampling during the experiment. In addition, the femoral veins of both hindlegs are cannulated for administration of test compound.
A left thoracotomy is performed at the fifth intercostal space, and the heart is suspended in a pericardial cradle. A 1- to 2-cm segment of the left circumflex coronary artery (LCX) is isolated proximal to the first major diagonal ventricular branch. A 26-gauge needle-tipped wire anodal electrode (Teflon-coated, 30-gauge silverplated copper wire) 3-4 mm long is inserted into the LCX and placed in contact with the intimal surface of the artery (confirmed at the end of the experiment). The stimulating circuit is completed by placing the cathode in a subcutaneous (s.c.) site. An adjustable plastic occluder is placed around the LCX, over the region of the electrode. […] All hemodynamic and ECG measurements are recorded and analyzed with a data acquisition system (model M3000, Modular Instruments, Malvern, Pa. U.S.A.).
Electrolytic injury of the intima of the LCX is produced by applying 100-μA direct current (DC) to the anode. […] Thrombus formation proceeds spontaneously until the LCX is totally occluded (determined as zero CBF and an increase in the S-T segment). […]

[3] = Index of Bioavailability (plasma TT AUC, oral vs i.v.); assay type: in vivo; details: rats, oral vs i.v. bolus
Source text: Assays are done in duplicate and averaged.
Each sample population represents alternating sequential time points.

human thrombin = human thrombin (Homo sapiens, UniProt P00734); test: Thrombin amidase inhibition (Kass), chromogenic substrate; assay type: biochemical
Procedure, shortened: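 Purified human thrombin (8 NIH units/ml solution) mixed with compound in 50% aqueous methanol and 0.03M Tris, 0.15M NaCl, pH 7.4; chromogenic substrate (0.25 mg/ml solution) added, p-nitroaniline release followed at 405 nm. Free thrombin read from a standard curve; Kass (L/mol) is the mean over a range of compound concentrations.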

[4] = target: T1, tissue plasminogen activator (t-PA) (Homo sapiens, UniProt P00750); test: Serine protease inhibition (Kass), t-PA; assay type: biochemical
T1 construct: purchased American Diagnostica, Greenwich, Conn

factor Xa = target: T2, factor Xa (Homo sapiens, UniProt P00742); test: Serine protease inhibition (Kass), factor Xa; assay type: biochemical
T2 construct: Human factors X, Xa, IXa, XIa, and XIIa are purchased from Enzyme Research Laboratories; purchased Enzyme Research Laboratories, South Bend, Ind
Procedure, shortened: (§1)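 Chromogenic p-nitroanilide substrate assays run as for human thrombin; trypsin with N-Benzoyl-Phe-Val-Arg-p-nitroanilide, human factor Xa with N-Benzoyl-Ile-Glu-Gly-Arg-p-nitroanilide. Values are association constants (Kass).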

human plasma [5] = test: Human plasma anticoagulation, prothrombin time (PT); assay type: biochemical
Procedure, shortened: (§2)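 Compounds added across a wide concentration range to human plasma; APTT, PT and TT clotting times measured on a coagulation instrument, bovine thrombin used for plasma assays. Concentration doubling clotting time estimated by linear extrapolation.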

Bovine trypsin = target: T3, Bovine trypsin (Bos taurus, UniProt P00760); test: Serine protease inhibition (Kass), trypsin; assay type: biochemical
T3 construct: Bovine trypsin is purchased from Worthington Biochemicals; purchased Worthington Biochemicals, Freehold, N.J
T3 sequence (P00760 24-246): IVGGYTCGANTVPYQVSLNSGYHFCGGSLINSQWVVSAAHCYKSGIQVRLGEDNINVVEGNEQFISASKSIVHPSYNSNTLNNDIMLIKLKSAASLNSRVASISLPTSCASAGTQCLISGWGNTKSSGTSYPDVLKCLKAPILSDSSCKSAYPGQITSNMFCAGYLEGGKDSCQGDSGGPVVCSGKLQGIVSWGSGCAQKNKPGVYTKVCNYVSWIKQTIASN
Procedure, shortened: as §1

human plasma [6] = test: Human plasma anticoagulation, thrombin time (TT); assay type: biochemical
Procedure, shortened: as §2

human plasma [7] = test: Human plasma anticoagulation, activated partial thromboplastin time (APTT); assay type: biochemical
Procedure, shortened: as §2

Human plasmin = target: T4, Human plasmin (Homo sapiens, UniProt P00747); test: Serine protease inhibition (Kass), plasmin; assay type: biochemical
T4 construct: Human plasmin is purchased from Boehringer Mannheim; purchased Boehringer Mannheim, Indianapolis, Ind
Procedure, shortened: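 Chromogenic enzyme assays run as for human thrombin, giving association constants (Kass). Human plasmin used with H-D-Val-Leu-Lys-p-nitroanilide; t-PA (single-chain nt-PA or modified mt-PA6) with H-D-Ile-Pro-Arg-p-nitroanilide.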

T4 sequence (P00747 581-810 limits assumed): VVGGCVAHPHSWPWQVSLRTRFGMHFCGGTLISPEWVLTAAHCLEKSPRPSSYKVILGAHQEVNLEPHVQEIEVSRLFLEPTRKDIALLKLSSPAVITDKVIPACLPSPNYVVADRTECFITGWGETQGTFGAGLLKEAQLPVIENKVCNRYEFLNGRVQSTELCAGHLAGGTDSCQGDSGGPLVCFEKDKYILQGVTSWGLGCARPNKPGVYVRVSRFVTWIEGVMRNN
T4 sequence (P00747 97-580 partner limits assumed): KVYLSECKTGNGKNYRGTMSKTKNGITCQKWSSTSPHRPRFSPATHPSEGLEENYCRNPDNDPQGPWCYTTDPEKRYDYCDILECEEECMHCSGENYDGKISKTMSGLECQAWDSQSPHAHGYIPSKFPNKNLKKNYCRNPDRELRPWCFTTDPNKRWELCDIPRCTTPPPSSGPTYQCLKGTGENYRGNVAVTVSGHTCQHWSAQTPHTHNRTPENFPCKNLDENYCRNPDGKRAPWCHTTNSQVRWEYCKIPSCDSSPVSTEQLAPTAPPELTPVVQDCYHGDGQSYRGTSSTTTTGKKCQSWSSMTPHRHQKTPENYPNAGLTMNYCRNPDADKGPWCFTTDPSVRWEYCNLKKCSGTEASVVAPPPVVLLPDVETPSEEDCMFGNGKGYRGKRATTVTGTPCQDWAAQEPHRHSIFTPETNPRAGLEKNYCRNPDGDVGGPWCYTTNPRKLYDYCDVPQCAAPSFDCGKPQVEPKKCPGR
T1 sequence (P00750 36-562): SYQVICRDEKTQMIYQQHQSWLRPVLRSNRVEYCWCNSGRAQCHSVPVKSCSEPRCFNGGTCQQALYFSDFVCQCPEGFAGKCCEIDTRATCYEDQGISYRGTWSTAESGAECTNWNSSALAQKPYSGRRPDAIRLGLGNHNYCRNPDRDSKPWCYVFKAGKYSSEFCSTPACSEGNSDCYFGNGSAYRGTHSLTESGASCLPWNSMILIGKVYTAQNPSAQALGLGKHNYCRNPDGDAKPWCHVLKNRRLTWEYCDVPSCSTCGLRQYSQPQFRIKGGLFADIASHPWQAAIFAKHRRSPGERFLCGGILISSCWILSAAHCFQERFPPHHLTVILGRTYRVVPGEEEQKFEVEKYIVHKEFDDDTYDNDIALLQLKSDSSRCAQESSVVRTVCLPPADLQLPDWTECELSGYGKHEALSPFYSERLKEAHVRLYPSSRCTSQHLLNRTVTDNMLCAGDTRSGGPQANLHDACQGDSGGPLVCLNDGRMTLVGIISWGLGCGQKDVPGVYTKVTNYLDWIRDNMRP
T2 sequence (P00742 235-488 limits assumed): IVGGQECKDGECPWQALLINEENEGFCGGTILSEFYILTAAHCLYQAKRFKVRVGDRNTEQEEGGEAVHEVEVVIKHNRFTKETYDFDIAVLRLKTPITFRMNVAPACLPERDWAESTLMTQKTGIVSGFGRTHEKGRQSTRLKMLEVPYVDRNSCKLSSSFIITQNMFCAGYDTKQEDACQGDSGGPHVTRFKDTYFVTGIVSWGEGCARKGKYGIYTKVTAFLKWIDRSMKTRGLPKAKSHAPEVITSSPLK
T2 sequence (P00742 41-179 partner limits assumed): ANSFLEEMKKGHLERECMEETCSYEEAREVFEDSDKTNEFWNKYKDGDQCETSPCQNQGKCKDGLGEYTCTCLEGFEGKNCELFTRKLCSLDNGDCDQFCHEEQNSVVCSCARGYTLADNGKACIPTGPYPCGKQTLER

Kass Xa (factor Xa) [L/mol × 10^6] | Kass Trypsin (Bovine trypsin) [L/mol × 10^6] | Kass Plasmin (Human plasmin) [L/mol × 10^6] | Compound | A.U.C. o-infinity [1] [ng·h/mL] | Clt/F [1] [mL/min/kg] | Cmax [1] [ng/mL] | Ke [1] [min.-1] | Tmax [1] [h] | VD/F [1] [L/kg] | t0.5 [1] [min] | effect on template bleeding time (template bleeding time) | Time to Occlusion ([2]; dose 0.25 mg/kg.hr) [min] | Time to Occlusion ([2]; dose 0.50 mg/kg.hr) [min] | Time to Occlusion ([2]; dose 1.00 mg/kg.hr) [min] | Percent Relative Activity (Index of Bioavailability) [3] [%] | Kass Human Thrombin (human thrombin) [L/mol × 10^6] | Kass t-PA [4] [L/mol × 10^6] | 2 × Clotting time PT (human plasma [5]) | 2 × Clotting time TT (human plasma [6]) [ng/mL] | 2 × Clotting time APTT (human plasma [7])
2.0 | 43 | 7.0 | Cl.N=C(N)NCCC[C@@H](C=O)NC(=O)[C@@H]1CCCN1C(=O)[C@@H](Cc1ccccc1)NS(=O)(=O)c1ccc(C(=O)O)cc1 [Example 62, N-(4-carboxyphenylsulfonyl)-D-phenylalanyl-L-Prolinyl-L-Arginine Aldehyde Hydrochloride] | – | – | – | – | – | – | – | – | – | – | – | 13 | 70 | 1.1 | 3,000 ng/mL | 120 | 1,200 ng/mL
0.11 | 69 | 0.49 | Cl.N=C(N)NCCC[C@@H](C=O)NC(=O)[C@@H]1CCCN1C(=O)[C@@H](Cc1ccccc1)NCC1CCCCC1 [Example 74, N-(cyclohexylmethyl)-D-phenylalanyl-L-Prolinyl-L-Arginine Aldehyde Hydrochloride] | – | – | – | – | – | – | – | – | – | – | – | 1 | 480 | 0.046 | 1,200 ng/mL | 16 | 860 ng/mL
2.3 | 240 | 16 | CCOC(=O)N[C@H](Cc1ccccc1)C(=O)N1CCC[C@H]1C(=O)N[C@H](C=O)CCCNC(=N)N.Cl [Example 77, N-(ethoxycarbonyl)-D-phenylalanyl-L-Prolinyl-L-Arginine Aldehyde Hydrochloride] | – | – | – | – | – | – | – | – | – | – | – | 14 | 170 | 2.5 | 2,000 ng/mL | 22 | 390 ng/mL

The next lines start with the molecule.

Compound | Kass Xa (factor Xa) [L/mol × 10^6] | Kass Trypsin (Bovine trypsin) [L/mol × 10^6] | Kass Plasmin (Human plasmin) [L/mol × 10^6] | A.U.C. o-infinity [1] [ng·h/mL] | Clt/F [1] [mL/min/kg] | Cmax [1] [ng/mL] | Ke [1] [min.-1] | Tmax [1] [h] | VD/F [1] [L/kg] | t0.5 [1] [min] | effect on template bleeding time (template bleeding time) | Time to Occlusion ([2]; dose 0.25 mg/kg.hr) [min] | Time to Occlusion ([2]; dose 0.50 mg/kg.hr) [min] | Time to Occlusion ([2]; dose 1.00 mg/kg.hr) [min] | Percent Relative Activity (Index of Bioavailability) [3] [%] | Kass Human Thrombin (human thrombin) [L/mol × 10^6] | Kass t-PA [4] [L/mol × 10^6] | 2 × Clotting time PT (human plasma [5]) | 2 × Clotting time TT (human plasma [6]) [ng/mL] | 2 × Clotting time APTT (human plasma [7])
Cl.Cl.N=C(N)NCCC[C@@H](C=O)NC(=O)[C@@H]1CCCN1C(=O)[C@H]1CCCCN1 [Example 1, D-Homoprolinyl-L-Prolinyl-L-Arginine Aldehyde Dihydrochloride] (H-[dPip]-Pro-Arg-aldehyde) | – | – | – | 4651 | 7.28 | 1676 | 0.0104 | 1 to 2 | 0.729 | 67 | no significant effect on template bleeding time | 60 | 150 | > 225 | 38 | 46 | 0.02 | – | – | –
CCS(=O)(=O)N[C@H](CC1CCCCC1)C(=O)N1CCC[C@H]1C(=O)N[C@H](C=O)CCCNC(=N)N.Cl [Example 65, N-(ethylsulfonyl)-D-cyclohexylalanyl-L-Prolinyl-L-Arginine Aldehyde Hydrochloride] | 20 | 200 | 45 | – | – | – | – | – | – | – | – | – | – | – | 19 | 550 | 0.73 | 730 ng/mL | 25 | 260 ng/mL
CC(=O)N[C@H](CC1CCCCC1)C(=O)N1CCC[C@H]1C(=O)N[C@H](C=O)CCCNC(=N)N.Cl [Example 72, N-(acetyl)-D-cyclohexylalanyl-L-Prolinyl-L-Arginine Aldehyde Hydrochloride] (Ac-[dCha]-Pro-Arg-aldehyde) | 1.1 | 12 | 0.61 | – | – | – | – | – | – | – | – | – | – | – | 9 | 26 | 0.035 | 3,500 ng/mL | 92 | 1,900 ng/mL
